# Data from patent US20010036944A1, “Certain benzothiazine dioxide endothelin antagonists and processes for their preparation” (priority 1997, published 2001).
# Where a name gives a salt, the structure may show the parent alone. Read-outs that look alike come from different tables or passages of the source.
# Tests used:
# [1] = Pharmacokinetics in rat; settings: in vivo
# [2] = tested on: bET-1 pressor response; experiment: Inhibition of bET-1 induced pressor effect in rat; assay type: in vivo; settings: oral
# Procedure: Inhibition of bETI Induced Pressor Effect in Rat Male Sprague-Dawley (Charles River Laboratories, Kingston, Ontario, Canada) weighing 250 to 350 g are anesthetized (Inactin, 120 mg/kg, I.P.) and acutely instrumented with a carotid artery catheter to monitor arterial blood pressure and with a jugular vein catheters to administer intravenous drugs. Once instrumented, the rats are ganglionicblocked with mecamylamine (1.25 mg/kg, I.V.) to prevent hemodynamic reflexes and then challenged with big endothelin-1 (bET-1) (1.0 nmol/kg, I.V.). The peak arterial pressor response in rats pre-treated with selected compounds of invention compared to vehicletreated rats is used to determine activity expressed as % inhibition. For I.V. activity selected compounds of invention was dose 10 minutes before the bET-1 challenge, and for oral activity selected compounds of invention was administered via oral gavage 8 or 24 hours before the bET-1 challenge.
# [3] = target: T1, recombinant human ETAR (HETA) (Homo sapiens, UniProt P25101); experiment: Radioligand binding, [125I]ET-1 to membranes of Ltk- cells expressing recombinant human ETAR (HETA)
# T1 construct: expressed in transfected cells; host or cells: Ltk- cells (membrane preparation)
# T1 sequence (P25101 21-427): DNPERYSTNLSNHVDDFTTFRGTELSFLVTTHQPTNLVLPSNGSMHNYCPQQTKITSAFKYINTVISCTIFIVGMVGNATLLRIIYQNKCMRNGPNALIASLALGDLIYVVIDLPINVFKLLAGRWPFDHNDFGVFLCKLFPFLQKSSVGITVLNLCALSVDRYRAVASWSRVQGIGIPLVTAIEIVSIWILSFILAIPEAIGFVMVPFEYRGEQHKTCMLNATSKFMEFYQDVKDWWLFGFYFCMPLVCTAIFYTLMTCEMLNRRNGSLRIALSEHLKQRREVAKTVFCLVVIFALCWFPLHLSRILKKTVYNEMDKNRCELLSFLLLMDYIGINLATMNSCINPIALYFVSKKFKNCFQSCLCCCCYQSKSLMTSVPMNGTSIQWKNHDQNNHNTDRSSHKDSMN
# Procedure: (§1) The following cultured cells were used in binding experiments: Ltk-cells expressing recombinant human ETAR (HETA), and CHOKI cells expressing recombinant human ETBR (HETB).
# (§2) Membranes were prepared from cultured cells by lysing cells in cold lysis buffer (5 mM HEPES, 2 mM EDTA, pH 7.4) and homogenizing with a Dounce “A” homogenizer. The homogenate was centrifuged at 30,000×g for 20 minutes at […]. Membrane pellets were suspended in cold buffer containing 20 mM Tris, 2 mM EDTA, 200 μM Pefabloc, 10 μM phosphoramidon, 10 μM leupeptin, 1 μM pepstatin at pH 7.4 and frozen at […] until use. Membranes were thawed and homogenized with a Brinkmann Polytron then diluted in tissue buffer containing 20 mM Tris, 2 mM EDTA, 200 μM Pefabloc, and 100 μM bacitracin (pH 7.4). Radioligand and competing ligands were prepared in binding buffer containing 20 mM Tris, 2 mM EDTA, and 0.1% BSA.
# (§3) The assay was terminated by filtration over Whatman GF/B filters which were presoaked with 50 mM Tris, pH 7.4 containing 0.2% BSA and 100 μM bacitracin. Nonspecific binding was defined as binding in the presence of 100 nM ET-1.
# [4] = tested on: ETA, rabbit femoral artery; experiment: Antagonism of ET-1 stimulated vasoconstriction (VERAA) in the rabbit femoral artery (ETA); settings: for VERAA (pA2): ET-1 stimulated vasoconstriction, rabbit femoral artery
# Source text: In Vitro Antagonism of ET-1 Stimulated Vasoconstriction (VERAA) in the Rabbit Femoral Arterv (ETA) and Sarafotoxin 6C Stimulated Vasoconstriction in the Rabbit Pulmonarv Artery (ETB)
# Male New Zealand rabbits were killed by cervical dislocation and exsanguination. Femoral and pulmonary arteries were isolated, cleaned of connective tissue, and cut into 4mm rings. The endothelium was denuded by placing the rings over hypodermic tubing (32 gauge for femoral rings and 28 gauge for pulmonary rings, Small Parts, Inc., Miami, Fla.) and gently rolling them. Denuded rings were mounted in 20 mL organ baths containing Krebsbicarbonate buffer (composition in mM: NaCl, 118.2; NaHCO3, 24.8; KCl, 4.6; MgSO4 7H2O, 1.2; KH2PO4, 1.2; CaCl2 2H2O; CaNa2 EDTA, 0.026;, dextrose, 10.0), that was maintained at 37° C. and gassed continuously with 5% CO2 in oxygen (pH 7.4). Resting tension was adjusted to 3.0 g for femoral and 4.0 g pulmonary arteries; the rings were left for 90 minutes to equilibrate. Vascular rings were tested for lack of functional endothelium (ie, lack of an endotheliumdependent relaxation response to carbachol ([…]) in norepinephrine ([…]) contracted rings. Agonist peptides, ET-1 -(femoral), and S6c (pulmonary), were cumulatively added at 10-minute intervals. The ET antagonists were added 30 minutes prior to adding the agonist.
# [5] = Pharmacokinetics in dog; settings: in vivo
# [6] = tested on: ETA receptor, human pulmonary artery smooth muscle cells; experiment: Blocking ET-1 induced Ca++ transients in human pulmonary artery smooth muscle cells; assay type: cell-based; settings: read-out: IC50 blocking ET-1 induced Ca++ transients via the ETA receptor
# [7] = tested on: bET-1 pressor response; experiment: Inhibition of bET-1 pressor response in dog; assay type: in vivo; settings: Canis lupus familiaris, oral, 24 hours postdose
# [8] = target: T2, recombinant human ETBR (HETB) (Homo sapiens, UniProt P24530); experiment: Radioligand binding, [125I]ET-1 to membranes of CHOKI cells expressing recombinant human ETBR (HETB); settings: [125I]ET-1 binding, human ETB, CHOKI cell membranes
# T2 construct: expressed in transfected cells; host or cells: CHOKI (CHO-K1) cells (membrane preparation)
# T2 sequence (P24530 27-442): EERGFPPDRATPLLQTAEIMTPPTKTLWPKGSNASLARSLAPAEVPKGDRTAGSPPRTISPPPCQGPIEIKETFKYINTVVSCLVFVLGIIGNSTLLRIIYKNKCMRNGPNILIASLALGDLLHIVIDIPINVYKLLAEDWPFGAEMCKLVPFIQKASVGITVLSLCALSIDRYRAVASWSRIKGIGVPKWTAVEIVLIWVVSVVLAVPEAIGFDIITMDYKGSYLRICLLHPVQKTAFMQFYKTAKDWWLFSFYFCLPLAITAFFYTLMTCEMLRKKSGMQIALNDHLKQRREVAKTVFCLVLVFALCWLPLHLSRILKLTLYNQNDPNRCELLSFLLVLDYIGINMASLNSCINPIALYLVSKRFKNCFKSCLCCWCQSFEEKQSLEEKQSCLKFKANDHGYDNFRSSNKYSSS
# Procedure: as §1, §2, §3
# [9] = tested on: acute hypoxic pulmonary hypertension; experiment: Acute hypoxic pulmonary hypertension in the rat; assay type: in vivo; settings: oral
# [10] = tested on: ETA, cultured rabbit renal artery vascular smooth muscle cells; experiment: Inhibition of ET-1 stimulated arachidonic acid release (AAR) in cultured rabbit vascular smooth muscle cells (ETA); assay type: cell-based
# Procedure: In Vitro Inhibition of ET-1 Stimulated Arachidonic Acid Release (AAR) in Cultured Rabbit Vascular Smooth Muscle Cells (ETA) by the Compounds of the Invention
# Antagonist activity is measured by the ability of added compounds to reduce endothelinstimulated arachidonic acid release in cultured vascular smooth muscle cells. [^3H]Arachidonic Acid Loading Media (LM) is DME/F12+0.5% FCS×0.25 mCi/mL [^3H]arachidonic acid (Amersham). Confluent monolayers of cultured rabbit renal artery vascular smooth muscle cells were incubated in 0.5 mL of the LM over 18 hours, at 37° C., in 5% CO2. The LM was aspirated and the cells were washed once with the assay buffer (Hank's BSS +10 mM HEPES +fatty acidfree BSA (1 mg/mL)), and incubated for 5 minutes with 1 mL of the prewarmed assay buffer. This solution was aspirated, followed by an additional 1 mL of prewarmed assay buffer, and further incubated for another 5 minutes. A final 5minute incubation was carried out in a similar manner. The same procedure was repeated with the inclusion of 10 μL of the test compound (1 nM to 1 μM) and 10 μL ET-1 -(0.3 nM) and the incubation was extended for 30 minutes. This solution was then collected, 10 mL of scintillation cocktail was added, and the amount of [^3H]arachidonic acid was determined in a liquid scintillation counter.
# [11] = Oryctolagus cuniculus, VSMC, read-out: AARA (IC50, μM)
# [12] = [125I]ET-1 binding, human ETA, Ltk- cell membranes, read-out: HETA (IC50)
Compound,VERAA (pA2) [4],IC50 [8] [µM],"IC50 [10, 11] [µM]","IC50 [3, 12] [µM]",also measured
"CCc1cc(C2=C(C(=O)O)N(c3ccccc3C(F)(F)F)S(=O)(=O)c3ccccc32)cc2c1OCO2 [Example 10, 4-(7-Ethylbenzo[1,3]dioxol-5yl)-1,1 dioxo-2-(2-trifluoromethyl-phenyl) 1,2-dihydro1λ^6-benzo[e]11.2]thiazine-3-carboxylic acid, sodium salt]",7.7,2.2,–,–,"bioavailability ([1]; oral): 77%; half-life ([1]; read-out: terminal elimination t1/2 (converted)): 8.5 h; inhibition at 10 mg/kg ([2]; 10 mg/kg, 8 hours postdose): 44%; inhibition at 30 mg/kg ([2]; 30 mg/kg, 24 hours postdose): 48%; IC50 ([3]; read-out: IC50 of ET-1 binding to human ETA receptors): 0.0006 µM; pA2, antagonism to ET-1 stimulated vasoconstriction in rabbit femoral artery [4]: 7.7; half-life [5]: 2.2 h; bioavailability ([5]; oral): 100%; IC50 [6]: 0.0002 µM; inhibition at 15 mg/kg [7]: 25%; ED50 ([9]; dose dependent, read-out: ED50, inhibition of acute hypoxic pulmonary hypertension): 0.8 mg/kg; EC50 ([9]; plasma concentration, read-out: plasma EC50, inhibition of acute hypoxic pulmonary hypertension): 0.046 mg/L"
Cc1ccccc1N1C(C(=O)O)=C(c2ccc3c(c2)OCO3)c2ccccc2S1(=O)=O [Example 12],–,> 25,0.1,0.061,–
"4-(7-Methoxybenzo[1,3]-dioxol-5-yl)-1,1-dioxo-2-(2-trifluoromethyl-phenyl) 1,2-dihydro 1λ^6-benzo [e][1,2thiazine-3-carboxylic acid [Example 7]",7.0,–,–,0.003,"IC50 ([10]; ET-1 (0.3 nM) stimulated arachidonic acid release, rabbit renal artery VSMC, read-out: AARA (IC50)): 0.0045 µM"
O=C(O)C1=C(c2ccc3c(c2)OCO3)c2ccccc2S(=O)(=O)N1c1cc2c(cc1Cl)OCO2 [Example 25],6.0,> 25,0.05,0.11,–
"COc1cc(C2=C(C(=O)[O-])N(c3c(C)cccc3C)S(=O)(=O)c3ccccc32)cc2c1OCO2.[Na+] [Example 6, 2-(2,6-Dimeth Iphenyl)4-(7-methoxy-benzo-[1,3]dioxol-5vl)-1,1 dioxo 1,2dihydro 1λ^6-benzo[e][1,2]thiazine-3-carboxylic acid monosodium salt]",7.1,> 2.5,–,0.004,–
"O=C(O)C1=C(c2ccc3c(c2)OCO3)c2ccccc2S(=O)(=O)N1c1ccccc1Br [Example 17, 4-Benzo[1,3]dioxol-5yl-2-(2bromophenyl)-1,1-dioxo-1,2-dihydro-1λ^6-benzo[e][1,2]thiazine-3-carboxylic acid]",–,> 25,0.031,0.03,–
"O=C(O)C1=C(c2ccc3c(c2)OCO3)c2ccccc2S(=O)(=O)N1c1ccccc1Cl [Example 18, 4-Benzo [1,3]dioxol-5yl-2-(2-chlorophenyl)-1,1-dioxo-1,2-dihydro-1λ^6-benzo[e][1,2]thiazine-3-carboxylic acid]",5.8,> 25,0.032,0.036,–
"COc1cc(C2=C(C(=O)O)N(c3ccccc3C)S(=O)(=O)c3ccccc32)cc2c1OCO2 [Example 8, 4-(7-Methoxy-benzo[1,3]dioxol-5-yl)-1,1-dioxo-2o-tolyl-1,2-dihydro-1,6-benzo[e][1,2]-thiazine-3-carboxylic acid]",6.5,3.9,–,0.008,–
